The values that follow come from ChEMBL document CHEMBL1201862, “PubChem BioAssay data set” (2004).

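Cultured in 96-well plates, cells were exposed to test compound for 48 hours across five concentrations. The concentration for 50% growth inhibition is given as GI50.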 Calls of active or inactive are those of the source. Rule as the data show it: active = GI50 up to about 1.1 µM and inactive = higher. Square brackets hold non-standard residues; d marks the D form. Peptide text beside a SMILES is read from it. * marks the point of attachment. ξ: configuration not given here. ξD = NC(CC(=O)O)C(=O)O; Ac3c = NC1(C(=O)O)CC1; Boc = CC(C)(C)OC(=O)*; OtBu = CC(C)(C)O*

Test in all cases: growth of human tumour cells (NCI), 48 h
The test system of assay [1] is NCI/ADR-RES.
The test system of assay [2] is COLO 205.
Assay [3] deals with SN12C.
The subject of assay [4] is SK-MEL-2.
Assay [5] deals with A549.
In assay [6] the test system is UACC-62.
Assay [7] has as its system CCRF-CEM.
Assay [8] deals with UO-31.
The test system of assay [9] is PC-3.
Assay [10] deals with Malme-3M.
Assay [11] relates to MDA-MB-435.
Assay [12] concerns IGROV-1.
The subject of assay [13] is BT-549.
Assay [14] relates to SF-268.
Assay [15] has as its system HCT-15.
The subject of assay [16] is SK-MEL-28.
Assay [17] concerns SNB-19.
Assay [18] concerns SK-MEL-5.
Assay [19] concerns K562.
In assay [20] the test system is ACHN.

In the case of `CCC(C)C1NC(=O)C(NC(=O)C(CC(C)C)N(C)C(=O)[C@@H]2C=CCN2C(=O)[C@H](C)O)C(C)OC(=O)[C@H](Cc2ccc(OC)cc2)N(C)C(=O)[C@@H]2CCCN2C(=O)[C@H](CC(C)C)NC(=O)C(C)C(=O)[C@H](C(C)C)OC(=O)CC1O` (stereo not given in full), the GI50 is 0.0419 µM (active) in [1]; 0.00143 µM (active) in assay [2]; 0.00279 µM (active) in [3]; < 0.01 µM (active) in [4]; 0.004 µM (active) in [5]; 0.00119 µM (active) in assay [6]. Besides, the GI50 is 0.00164 µM (active) in [7]; 0.0138 µM (active) in assay [8]; 0.00291 µM (active) in assay [9]; 0.00219 µM (active) in [10]; 0.00277 µM (active) in assay [11]; 0.00256 µM (active) in [12]. In addition, the GI50 is 0.00365 µM (active) in assay [13]; 0.00243 µM (active) in [14]; 0.0239 µM in assay [15]; 0.00138 µM (active) in assay [16]; 0.00374 µM (active) in assay [17]; 0.000914 µM (active) in [18]. Further, the GI50 in assay [19] was 0.0021 µM (active); in assay [20], 0.00402 µM (active).

Turning to `COC(=O)C1(NC(=O)C(CC(=O)OC(C)(C)C)NC(=O)OC(C)(C)C)CC1` (stereo not given) (Boc-[ξD](OtBu)-[Ac3c]-OMe), the GI50 in assay [1] is > 100 µM (inactive); in [2], > 100 µM (inactive); in assay [3], > 100 µM (inactive); in [4], > 100 µM (inactive); in assay [5], > 100 µM (inactive); in assay [6], 1.19 µM (inactive). Also, the GI50 in assay [7], in assay [8], in [9], in [10], in assay [11] and in [12] was > 100 µM (inactive) in each case. Besides, the GI50 in assay [13] was > 100 µM (inactive); in [14] it was > 100 µM (inactive); in [15], greater than 100 µM; in assay [16] it was > 100 µM (inactive); in assay [17], > 100 µM (inactive); in [18], > 100 µM (inactive). For the same compound, the GI50 in assay [19] and in assay [20] was > 100 µM (inactive) each time.

On to `CCc1n[nH]c(=O)n1-n1c(C)ccc1C`, for which the GI50 in assay [1], in assay [2], in [3], in assay [4], in assay [5] and in [6] was > 100 µM (inactive) each time. Further, the GI50 in assay [7], in [8], in assay [9], in assay [10], in [11] and in assay [12] was > 100 µM (inactive) in each case. Further, the GI50 is > 100 µM (inactive) in assay [13]; > 100 µM (inactive) in assay [14]; greater than 100 µM in assay [15]; > 100 µM (inactive) in assay [16]; > 100 µM (inactive) in [17]; > 100 µM (inactive) in assay [18]. In addition, the GI50 in [19] and in assay [20] was > 100 µM (inactive) in each case.

Regarding `CCOC1CC(=O)c2c(Br)sc(Br)c21` (stereo not given), the GI50 in [1] is 37.6 µM (inactive); in assay [2], 19.7 µM (inactive); in [3], 24.9 µM (inactive); in assay [4] it was 17.5 µM (inactive); in [5], 29.2 µM (inactive); in assay [6], 18.7 µM (inactive). Moreover, the GI50 in assay [7] was 7.31 µM (inactive); in assay [8] it was 18.2 µM (inactive); in assay [9], 20.8 µM (inactive); in assay [10] it was 23.1 µM (inactive); in [11] it was 17.5 µM (inactive); in assay [12], 15.5 µM (inactive). In addition, the GI50 is 24.4 µM (inactive) in assay [13]; 28.6 µM (inactive) in [14]; 18 µM in assay [15]; 19.6 µM (inactive) in assay [16]; 23.8 µM (inactive) in assay [17]; 30.8 µM (inactive) in assay [18]. Besides, the GI50 in assay [19] is 17.3 µM (inactive); in assay [20], 19.7 µM (inactive).

With `COCn1c(C)c(C)c2c(=O)oc(=O)[nH]c21`, the GI50 in assay [1], in [2], in [3], in assay [4], in assay [5] and in [6] was > 100 µM (inactive) throughout. Besides, the GI50 in assay [7], in assay [8], in assay [9], in assay [10], in assay [11] and in [12] was > 100 µM (inactive) in each case. For the same compound, the GI50 was > 100 µM (inactive) in assay [13]; > 100 µM (inactive) in assay [14]; greater than 100 µM in assay [15]; > 100 µM (inactive) in assay [16]; > 100 µM (inactive) in assay [17]; > 100 µM (inactive) in assay [18]. The GI50 in assay [19] and in [20] was > 100 µM (inactive) in each case.

Regarding `CCCSc1cc(Cl)c(C)cc1S(=O)(=O)n1ccnc1O`, the GI50 in [1], in assay [2], in assay [3], in [4], in [5] and in assay [6] was > 100 µM (inactive) each time. Moreover, the GI50 in assay [7], in assay [8], in assay [9], in assay [10], in [11] and in [12] was > 100 µM (inactive) throughout. The GI50 in assay [13] was > 100 µM (inactive); in assay [14], > 100 µM (inactive); in assay [15] it was greater than 100 µM; in [16] it was > 100 µM (inactive); in assay [17] it was > 100 µM (inactive); in [18], > 100 µM (inactive). Further, the GI50 in assay [19] and in [20] was > 100 µM (inactive) in each case.

Take `CCCCCCCCCCCCCCCCCCNc1ccn(C2OC(COP(=O)(O)OCC3OC(n4cc(F)c(=O)[nH]c4=O)CC3O)C(O)C2O)c(=O)n1` (stereo not given): the GI50 in assay [1] was 1.33 µM (inactive); in [2], 16.1 µM (inactive); in assay [3], 3.29 µM (inactive); in [4], 51.9 µM (inactive); in assay [5] it was 0.251 µM (active); in [6], 1.19 µM (inactive). For the same compound, the GI50 in [7] was 1.24 µM (inactive); in assay [8], 0.498 µM (active); in assay [9] it was 1.53 µM (inactive); in [10] it was 0.634 µM (active); in [11], 37.9 µM (inactive); in [12], 10.1 µM (inactive). Besides, the GI50 in assay [13] was 11.7 µM (inactive); in assay [14], 0.0914 µM (active); in [15], 16.3 µM; in assay [16] it was > 100 µM (inactive); in [17] it was 20.2 µM (inactive); in assay [18], 23.1 µM (inactive). Also, the results for the GI50 in assay [19] and in [20] were 12.1 µM (inactive) and 0.778 µM (active), respectively.

As for `NC(Cc1ccccc1)c1nccs1` (stereo not given), the GI50 in assay [1], in assay [2], in assay [3], in assay [4], in [5] and in assay [6] was > 100 µM (inactive) throughout. For the same compound, the GI50 in assay [7], in [8], in assay [9], in assay [10], in [11] and in [12] was > 100 µM (inactive) in each case. The GI50 in [13] was > 100 µM (inactive); in assay [14] it was > 100 µM (inactive); in [15], greater than 100 µM; in assay [16], > 100 µM (inactive); in assay [17] it was > 100 µM (inactive); in assay [18], > 100 µM (inactive). Also, the GI50 in assay [19] and in assay [20] was > 100 µM (inactive) in each case.

`COc1cc(OCc2ccc3oc(=O)c(-c4ccccc4)nc3c2)cc(OC)c1OC`: the GI50 in assay [1], in [2], in assay [3], in assay [4], in assay [5] and in [6] was > 100 µM (inactive) each time. Besides, the GI50 in assay [7], in assay [8], in assay [9], in assay [10], in [11] and in assay [12] was > 100 µM (inactive) each time. The GI50 in assay [13] is > 100 µM (inactive); in assay [14] it was > 100 µM (inactive); in assay [15], greater than 100 µM; in assay [16], > 100 µM (inactive); in assay [17] it was > 100 µM (inactive); in [18], > 100 µM (inactive). Further, the GI50 in assay [19] and in assay [20] was > 100 µM (inactive) throughout.

Regarding `Cc1ccc(S(=O)(=O)n2cncc2CO)cc1`, the GI50 in assay [1], in assay [2], in assay [3], in assay [4], in assay [5] and in [6] was > 100 µM (inactive) in each case. Besides, the GI50 in [7], in assay [8], in [9], in assay [10], in [11] and in assay [12] was > 100 µM (inactive) in each case. The GI50 was > 100 µM (inactive) in assay [13]; > 100 µM (inactive) in assay [14]; greater than 100 µM in assay [15]; > 100 µM (inactive) in [16]; > 100 µM (inactive) in assay [17]; > 100 µM (inactive) in assay [18]. For the same compound, the GI50 in assay [19] and in assay [20] was > 100 µM (inactive) in each case.
